For one experiment, the target named is T1, Adenosine receptor A3 (Homo sapiens, UniProt P0DMS8).
T1 sequence (P0DMS8 whole entry): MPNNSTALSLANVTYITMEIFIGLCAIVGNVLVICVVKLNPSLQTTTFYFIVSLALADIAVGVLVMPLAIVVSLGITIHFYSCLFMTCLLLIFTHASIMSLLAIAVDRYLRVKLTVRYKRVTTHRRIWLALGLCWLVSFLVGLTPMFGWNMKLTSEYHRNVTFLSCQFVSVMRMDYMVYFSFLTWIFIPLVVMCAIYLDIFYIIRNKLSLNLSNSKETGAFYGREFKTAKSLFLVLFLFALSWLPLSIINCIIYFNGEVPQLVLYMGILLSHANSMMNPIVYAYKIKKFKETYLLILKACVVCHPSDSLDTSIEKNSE

For experiment [1], the target named is T2, Alpha-1A adrenergic receptor (Homo sapiens, UniProt P35348).
T2 sequence (P35348 whole entry): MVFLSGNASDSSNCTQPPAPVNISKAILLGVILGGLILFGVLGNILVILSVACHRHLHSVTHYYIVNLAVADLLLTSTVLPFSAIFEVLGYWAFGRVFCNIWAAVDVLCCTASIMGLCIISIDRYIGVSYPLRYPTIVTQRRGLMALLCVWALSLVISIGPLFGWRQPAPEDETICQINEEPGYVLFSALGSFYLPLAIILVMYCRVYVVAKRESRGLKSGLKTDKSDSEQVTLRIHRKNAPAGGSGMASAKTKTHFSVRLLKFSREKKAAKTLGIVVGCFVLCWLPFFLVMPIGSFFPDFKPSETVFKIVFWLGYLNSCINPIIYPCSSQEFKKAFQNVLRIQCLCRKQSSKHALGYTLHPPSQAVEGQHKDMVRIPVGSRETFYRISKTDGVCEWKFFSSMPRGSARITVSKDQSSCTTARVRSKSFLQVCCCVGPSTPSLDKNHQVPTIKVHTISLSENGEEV
The format is functional, cell-based.

Experiment [2] addresses T3, Alpha-2A adrenergic receptor (Homo sapiens, UniProt P08913).
T3 sequence (P08913 whole entry): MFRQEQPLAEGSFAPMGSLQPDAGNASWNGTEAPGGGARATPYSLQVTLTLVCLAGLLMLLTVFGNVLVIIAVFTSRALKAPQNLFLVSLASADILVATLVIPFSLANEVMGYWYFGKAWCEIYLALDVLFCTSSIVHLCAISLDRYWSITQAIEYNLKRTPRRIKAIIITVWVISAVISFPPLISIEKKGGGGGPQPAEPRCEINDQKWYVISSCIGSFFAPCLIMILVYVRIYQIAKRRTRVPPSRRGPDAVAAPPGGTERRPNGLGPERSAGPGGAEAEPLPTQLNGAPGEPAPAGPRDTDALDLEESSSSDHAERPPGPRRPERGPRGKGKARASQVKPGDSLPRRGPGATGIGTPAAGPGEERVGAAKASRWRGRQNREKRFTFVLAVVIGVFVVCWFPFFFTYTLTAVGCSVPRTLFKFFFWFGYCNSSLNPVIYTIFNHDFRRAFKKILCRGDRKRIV
The format is functional, cell-based.

Experiment [3] deals with Gamma-aminobutyric acid receptor subunit alpha-1 (Rattus norvegicus, UniProt P62813). Type of experiment: functional.
The target in experiment [4] is T4, 5-hydroxytryptamine receptor 1A (Homo sapiens, UniProt P08908).
T4 sequence (P08908 whole entry): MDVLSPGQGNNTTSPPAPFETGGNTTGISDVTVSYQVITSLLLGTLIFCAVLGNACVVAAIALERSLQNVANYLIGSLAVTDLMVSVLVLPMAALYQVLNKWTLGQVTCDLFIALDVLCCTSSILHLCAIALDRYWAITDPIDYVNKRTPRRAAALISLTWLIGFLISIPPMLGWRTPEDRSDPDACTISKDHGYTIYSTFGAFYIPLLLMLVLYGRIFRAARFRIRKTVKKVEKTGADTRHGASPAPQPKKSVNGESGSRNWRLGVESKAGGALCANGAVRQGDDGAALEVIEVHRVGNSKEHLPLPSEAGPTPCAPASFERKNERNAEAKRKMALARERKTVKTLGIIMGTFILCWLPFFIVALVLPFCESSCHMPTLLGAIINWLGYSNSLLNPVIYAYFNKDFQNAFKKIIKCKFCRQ
The format is functional, cell-based.

Experiment [5] has as its target T5, 5-hydroxytryptamine receptor 3A (Homo sapiens, UniProt P46098).
T5 sequence (P46098 whole entry): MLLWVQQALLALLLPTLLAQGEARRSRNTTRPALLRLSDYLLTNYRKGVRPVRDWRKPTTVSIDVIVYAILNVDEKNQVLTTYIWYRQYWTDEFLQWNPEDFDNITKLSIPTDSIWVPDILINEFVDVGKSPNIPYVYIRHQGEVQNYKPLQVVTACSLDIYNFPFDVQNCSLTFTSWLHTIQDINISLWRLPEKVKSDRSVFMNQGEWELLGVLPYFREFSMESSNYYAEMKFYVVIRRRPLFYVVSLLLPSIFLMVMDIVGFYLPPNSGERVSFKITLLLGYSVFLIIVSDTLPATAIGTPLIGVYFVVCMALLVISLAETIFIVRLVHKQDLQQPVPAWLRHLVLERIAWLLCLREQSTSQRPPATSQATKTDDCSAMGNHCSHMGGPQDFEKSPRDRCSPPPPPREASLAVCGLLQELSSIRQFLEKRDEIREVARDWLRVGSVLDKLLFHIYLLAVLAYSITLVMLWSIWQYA
Type of experiment: functional.

For experiment [6], the target named is Voltage-gated inwardly rectifying potassium channel KCNH2 (Homo sapiens, UniProt Q12809). Type of experiment: functional. Conditions: read-out: AC50.
The next experiment concerns the target Motilin receptor (Homo sapiens, UniProt O43193).
The target of experiment [7] is Kappa-type opioid receptor (Homo sapiens, UniProt P41145).
Experiment [8] deals with T2, Alpha-1A adrenergic receptor. Type of experiment: functional, cell-based. This is another data set of the same source.

Some results are limits rather than exact numbers.
Note: assay procedure not described here.

Sequence of Gamma-aminobutyric acid receptor subunit alpha-1 (P62813 whole entry): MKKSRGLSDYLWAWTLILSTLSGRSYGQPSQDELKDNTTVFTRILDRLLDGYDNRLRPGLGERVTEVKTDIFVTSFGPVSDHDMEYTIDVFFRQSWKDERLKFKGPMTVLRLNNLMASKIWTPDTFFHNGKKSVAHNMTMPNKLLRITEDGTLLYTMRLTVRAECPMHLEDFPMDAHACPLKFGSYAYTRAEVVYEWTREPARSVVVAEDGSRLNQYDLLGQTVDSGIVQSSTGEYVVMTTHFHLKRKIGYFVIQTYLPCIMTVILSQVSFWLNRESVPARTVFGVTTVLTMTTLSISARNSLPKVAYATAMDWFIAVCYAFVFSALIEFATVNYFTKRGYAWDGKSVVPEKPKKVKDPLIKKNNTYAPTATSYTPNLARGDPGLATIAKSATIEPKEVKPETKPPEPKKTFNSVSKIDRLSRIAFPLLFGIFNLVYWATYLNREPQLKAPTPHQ
Sequence of Motilin receptor (O43193 whole entry): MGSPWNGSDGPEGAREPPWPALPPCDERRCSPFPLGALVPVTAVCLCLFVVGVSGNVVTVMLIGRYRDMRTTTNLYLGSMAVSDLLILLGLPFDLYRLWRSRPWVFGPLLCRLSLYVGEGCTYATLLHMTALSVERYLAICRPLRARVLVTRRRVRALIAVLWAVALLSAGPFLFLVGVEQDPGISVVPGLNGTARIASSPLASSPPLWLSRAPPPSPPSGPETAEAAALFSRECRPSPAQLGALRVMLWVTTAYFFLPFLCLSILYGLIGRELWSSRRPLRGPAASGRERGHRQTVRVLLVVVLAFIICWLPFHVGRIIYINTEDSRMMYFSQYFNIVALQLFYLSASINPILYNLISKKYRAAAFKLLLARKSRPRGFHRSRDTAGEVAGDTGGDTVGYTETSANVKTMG
Sequence of Voltage-gated inwardly rectifying potassium channel KCNH2 (Q12809 whole entry): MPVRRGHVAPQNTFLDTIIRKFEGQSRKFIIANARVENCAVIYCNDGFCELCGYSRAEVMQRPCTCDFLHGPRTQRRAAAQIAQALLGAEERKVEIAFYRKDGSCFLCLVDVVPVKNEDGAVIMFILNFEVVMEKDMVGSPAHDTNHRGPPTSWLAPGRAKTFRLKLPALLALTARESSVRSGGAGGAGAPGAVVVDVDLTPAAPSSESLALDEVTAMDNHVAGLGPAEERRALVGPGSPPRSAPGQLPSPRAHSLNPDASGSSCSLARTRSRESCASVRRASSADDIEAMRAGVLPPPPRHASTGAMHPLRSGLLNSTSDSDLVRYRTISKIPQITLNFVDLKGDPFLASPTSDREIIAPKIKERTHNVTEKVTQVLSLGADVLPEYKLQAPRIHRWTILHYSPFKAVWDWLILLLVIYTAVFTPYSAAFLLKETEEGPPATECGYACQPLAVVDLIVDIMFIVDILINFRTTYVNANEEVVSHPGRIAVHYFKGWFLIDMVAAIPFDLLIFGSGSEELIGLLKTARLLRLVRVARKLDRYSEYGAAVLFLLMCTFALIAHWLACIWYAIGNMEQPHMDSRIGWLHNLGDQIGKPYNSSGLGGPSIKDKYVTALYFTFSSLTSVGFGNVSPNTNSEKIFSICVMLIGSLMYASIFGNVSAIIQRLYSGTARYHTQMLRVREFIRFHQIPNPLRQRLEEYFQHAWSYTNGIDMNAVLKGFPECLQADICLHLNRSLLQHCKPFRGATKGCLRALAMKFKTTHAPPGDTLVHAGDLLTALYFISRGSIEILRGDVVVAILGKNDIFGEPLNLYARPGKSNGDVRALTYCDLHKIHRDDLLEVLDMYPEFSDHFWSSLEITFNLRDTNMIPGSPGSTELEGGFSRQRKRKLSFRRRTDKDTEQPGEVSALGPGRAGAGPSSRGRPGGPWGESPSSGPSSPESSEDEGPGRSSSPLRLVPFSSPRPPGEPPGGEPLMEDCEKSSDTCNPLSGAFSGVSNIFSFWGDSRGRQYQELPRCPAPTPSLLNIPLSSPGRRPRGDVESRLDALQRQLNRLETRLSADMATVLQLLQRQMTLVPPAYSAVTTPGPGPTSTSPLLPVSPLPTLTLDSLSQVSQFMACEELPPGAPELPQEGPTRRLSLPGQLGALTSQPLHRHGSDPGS
Sequence of Kappa-type opioid receptor (P41145 whole entry): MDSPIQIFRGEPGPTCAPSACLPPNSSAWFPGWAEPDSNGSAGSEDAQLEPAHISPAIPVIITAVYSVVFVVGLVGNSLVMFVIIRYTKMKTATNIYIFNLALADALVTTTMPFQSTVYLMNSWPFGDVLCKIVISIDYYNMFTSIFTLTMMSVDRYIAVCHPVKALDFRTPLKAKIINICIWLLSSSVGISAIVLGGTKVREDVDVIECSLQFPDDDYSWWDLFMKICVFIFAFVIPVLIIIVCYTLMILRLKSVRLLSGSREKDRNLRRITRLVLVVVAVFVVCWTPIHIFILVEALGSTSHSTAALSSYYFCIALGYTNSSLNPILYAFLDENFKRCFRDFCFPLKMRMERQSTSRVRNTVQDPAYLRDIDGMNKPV

On to `O=C(C[S+]([O-])C(c1ccccc1)c1ccccc1)NO` (stereo not given), for which the AC50 (on Adenosine receptor A3; in [1]; in experiment [2]; in experiment [3]; in experiment [4]; in [5]) was more than 30 µM throughout. In addition, the AC50 (in experiment [6]; on Motilin receptor; in experiment [7]; in [8]) was more than 30 µM in each case.

In the case of `COc1ccc2c(c1)c(CC(=O)OCC(=O)O)c(C)n2C(=O)c1ccc(Cl)cc1` [ACEMETACIN], the concentration at half-maximal activity (AC50) was more than 30 µM at Adenosine receptor A3; more than 30 µM in experiment [1]; more than 30 µM in experiment [2]; more than 30 µM in experiment [3]; 25 µM in experiment [4]; more than 30 µM in [5]. Besides, the AC50 (in experiment [6]; on Motilin receptor; in experiment [7]; in experiment [8]) was more than 30 µM in each case.

Consider `COc1ccc2cccc(CCNC(C)=O)c2c1` [AGOMELATINE], for which the AC50 at Adenosine receptor A3 is more than 30 µM; in experiment [1], more than 30 µM; in [2] it was more than 30 µM; in [3] it was more than 10 µM; in [4], more than 10 µM; in experiment [5], more than 30 µM. The concentration at half-maximal activity (AC50) in [6] is more than 30 µM; at Motilin receptor, more than 10 µM; in experiment [7] it was more than 10 µM; in experiment [8], more than 30 µM.

Turning to `CC(C)c1c(C(=O)Nc2ccccc2)c(-c2ccccc2)c(-c2ccc(F)cc2)n1CC[C@@H](O)C[C@@H](O)CC(=O)O` [ATORVASTATIN], the AC50 was more than 30 µM at Adenosine receptor A3; more than 30 µM in experiment [1]; more than 10 µM in experiment [2]; more than 10 µM in experiment [3]; more than 10 µM in experiment [4]; more than 30 µM in experiment [5]. For the same compound, the AC50 is more than 10 µM at Motilin receptor, more than 10 µM in experiment [7] and more than 30 µM in experiment [8].

Regarding `CN1C(=O)COc2c(C(=O)NC3CN4CCC3CC4)cc(Cl)cc21` (stereo not given) [AZASETRON], the concentration at half-maximal activity (AC50) was more than 30 µM at Adenosine receptor A3; more than 30 µM in [1]; more than 30 µM in experiment [2]; more than 30 µM in [3]; more than 30 µM in experiment [4]; 0.0162 µM in experiment [5]. Moreover, the concentration at half-maximal activity (AC50) was 8.5 µM in experiment [6], more than 30 µM at Motilin receptor, more than 30 µM in experiment [7] and more than 30 µM in experiment [8].

For the compound `NC(CO)C(=O)NNCc1ccc(O)c(O)c1O` (stereo not given) [BENSERAZIDE], the AC50 at Adenosine receptor A3 is 21.6 µM; in experiment [1] it was more than 30 µM; in experiment [2], more than 10 µM; in experiment [3], more than 10 µM; in [4], more than 10 µM; in experiment [5], more than 30 µM. Besides, the AC50 was more than 30 µM in experiment [6], more than 10 µM on Motilin receptor, more than 10 µM in experiment [7] and more than 30 µM in experiment [8].

For the compound `Cc1cc2c(OCC(CNC(C)(C)C)OC(=O)c3ccccc3)cccc2[nH]1` (stereo not given) [BOPINDOLOL], the AC50 on Adenosine receptor A3 is more than 30 µM; in [1], more than 30 µM; in experiment [2], more than 30 µM; in [3], more than 30 µM; in [4] it was 0.028 µM; in experiment [5] it was more than 30 µM. Also, the AC50 in experiment [6] was 0.49 µM; on Motilin receptor it was 23 µM; in [7] it was 2.1 µM; in experiment [8] it was more than 30 µM.

On to `CCC(C(=O)O)c1ccc(CC(C)C)cc1` (stereo not given) [BUTIBUFEN], for which the AC50 (on Adenosine receptor A3; in experiment [1]; in experiment [2]; in experiment [3]; in experiment [4]; in [5]) was more than 30 µM each time. Moreover, the AC50 (in experiment [6]; at Motilin receptor; in experiment [7]; in experiment [8]) was more than 30 µM each time.

`CN(C)C(=O)OC1N=C(c2ccccc2)c2cc(Cl)ccc2N(C)C1=O` (stereo not given) [CAMAZEPAM]: the AC50 was more than 30 µM on Adenosine receptor A3; more than 30 µM in experiment [1]; more than 10 µM in [2]; 0.96 µM in experiment [3]; more than 10 µM in experiment [4]; more than 10 µM in [5]. For the same compound, the AC50 in experiment [6] was more than 30 µM; at Motilin receptor, more than 10 µM; in experiment [7], more than 10 µM; in experiment [8], more than 30 µM.

Turning to `CCCCCOC(=O)Nc1nc(=O)n([C@@H]2O[C@H](C)[C@@H](O)[C@H]2O)cc1F` [CAPECITABINE], the AC50 (on Adenosine receptor A3; in experiment [1]; in [2]; in experiment [3]; in experiment [4]; in [5]) was more than 30 µM each time. Also, the AC50 (in experiment [6]; at Motilin receptor; in [7]; in experiment [8]) was more than 30 µM each time.

As for `Nc1nc2ccc(OC(F)(F)F)cc2s1` [RILUZOLE], the AC50 (at Adenosine receptor A3; in [1]; in experiment [2]; in [3]; in experiment [4]; in experiment [5]) was more than 30 µM each time. Besides, the half-maximal activity concentration (AC50) (on Motilin receptor; in experiment [7]; in [8]) was more than 30 µM each time.

On to `CC[C@]1(O)C[C@@H]2CN(CCc3c([nH]c4ccccc34)[C@@](C(=O)OC)(c3cc4c(cc3OC)N(C)[C@H]3[C@@](O)(C(N)=O)[C@H](O)[C@]5(CC)C=CCN6CC[C@]43[C@@H]65)C2)C1` [VINDESINE], for which the AC50 on Adenosine receptor A3 is more than 30 µM; in [1], more than 30 µM; in experiment [2], more than 30 µM; in [3], more than 30 µM; in experiment [5], more than 30 µM; in experiment [6], 14.9 µM. Further, the AC50 is 4.8 µM at Motilin receptor, more than 30 µM in [7] and more than 30 µM in [8].

With `Cc1ccc(-c2nc3ccc(C)cn3c2CC(=O)N(C)C)cc1` [ZOLPIDEM], the AC50 is more than 30 µM at Adenosine receptor A3; more than 30 µM in [1]; more than 30 µM in experiment [2]; more than 10 µM in experiment [4]; more than 30 µM in experiment [5]; more than 30 µM at Motilin receptor. The AC50 in [7] is 18 µM; in experiment [8] it was more than 30 µM.
